Consider 20 compounds from US12240862B2, “Inhibitors of peptidylarginine deiminases” (Gilead Sciences, Inc., priority 2020, dated 2025).

In the test the target is T1, human PAD4 (Homo sapiens, UniProt Q9UM07).
T1 construct: human PAD4 (NM_012387), A2P663, was PCR amplified; His-SUMO (N, cleaved yes); made in house; host or cells: E. coli BL21(DE3)
The test can be described thus: In vitro PAD4 BAEE biochemical assay. The note with it: human PAD4, BAEE substrate; 5 nM PAD4, 2 mM calcium chloride, 3 mM BAEE; geometric mean of multiple experiments. In a few lines:
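Ammonia release from BAEE deimination monitored by o-phthalaldehyde amine coupling (1 h, 25 °C) after EDTA stop. Final conditions: 5 nM tag-free recombinant human PAD4 (E. coli), 2 mM CaCl2, 3 mM BAEE, pH 7.6 MOPS with DTT; 30 min compound preincubation, then 2 h reaction at 25 °C.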

T1 sequence (Q9UM07 2-663): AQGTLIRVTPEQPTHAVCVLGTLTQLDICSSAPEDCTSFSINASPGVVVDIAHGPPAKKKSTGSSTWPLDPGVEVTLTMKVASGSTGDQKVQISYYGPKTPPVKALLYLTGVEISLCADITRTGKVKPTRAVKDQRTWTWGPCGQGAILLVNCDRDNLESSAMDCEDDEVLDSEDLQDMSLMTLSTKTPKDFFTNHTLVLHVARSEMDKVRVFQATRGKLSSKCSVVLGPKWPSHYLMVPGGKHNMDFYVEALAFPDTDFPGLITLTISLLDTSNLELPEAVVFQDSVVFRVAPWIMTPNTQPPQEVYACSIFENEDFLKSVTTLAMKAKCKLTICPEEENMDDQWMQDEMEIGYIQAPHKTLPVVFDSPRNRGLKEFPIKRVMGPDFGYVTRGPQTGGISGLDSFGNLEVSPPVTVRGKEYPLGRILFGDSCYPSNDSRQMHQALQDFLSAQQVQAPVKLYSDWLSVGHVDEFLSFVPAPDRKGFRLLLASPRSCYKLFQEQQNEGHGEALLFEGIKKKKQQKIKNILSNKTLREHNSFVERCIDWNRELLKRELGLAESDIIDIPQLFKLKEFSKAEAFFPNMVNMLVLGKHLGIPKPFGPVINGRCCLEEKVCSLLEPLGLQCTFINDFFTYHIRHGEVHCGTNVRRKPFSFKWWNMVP

With `CCc1c(-c2cc3ccc(N(C(F)F)S(C)(=O)=O)nc3n2CC2CC2)nc2cc(C(=O)N3C[C@H](N)CC[C@@H]3C)ccn12` [Example 406, ~{N}-[2-[7-[(2~{S},5~{R})-5-amino-2-methylpiperidine-1-carbonyl]-3-ethylimidazo [1,2-a]pyridin-2-yl]-1-(cyclopropylmethyl)pyrrolo [2,3-b]pyridin-6-yl]-~{N}-(difluoromethyl) methanesulfonamide], the IC50 (in general, the concentration at which inhibition is half-maximal) came out at 194 nM.
For `COc1cc(C(=O)N2[C@@H]3CC[C@@H](N)[C@H]2CC3)cc2nc(-c3cc4ccc(N(C(F)F)S(C)(=O)=O)nc4n3CC3CC3)c(C)n12` [Example 407, ~{N}-[2-[7-[(1~{R},2~{R}, 5~{R})-2-amino-8-azabicyclo[3.2.1]octane-8-carbonyl]-5-methoxy-3-methylimidazo[1,2-a]pyridin-2-yl]-1-(cyclopropylmethyl)pyrrolo [2,3-b]pyridin-6-yl]-~{N}-(difluoromethyl) methanesulfonamide] the value was 129 nM.
Turning to `COc1cc(C(=O)N2[C@H]3CC[C@H](N)[C@@H]2CC3)cc2nc(-c3cc4ccc(N(C(F)F)S(C)(=O)=O)nc4n3CC3CC3)c(C)n12` [Example 408, ~{N}-[2-[7-[(1~{S},2~{S}, 5~{S})-2-amino-8-azabicyclo[3.2.1]octane-8-carbonyl]-5-methoxy-3-methylimidazo[1,2-a]pyridin-2-yl]-1-(cyclopropylmethyl)pyrrolo [2,3-b]pyridin-6-yl]-~{N}-(difluoromethyl) methanesulfonamide], the IC50 was determined as 3020 nM.
On to `C[C@H]1CC[C@@H](N)CN1C(=O)c1ccn2c(C(F)F)c(-c3cc4ccc(N(C(F)F)S(C)(=O)=O)nc4n3CC3CC3)nc2c1` [Example 409, ~{N}-[2-[7-[(2~{S},5~{R})-5-amino-2-methylpiperidine-1-carbonyl]-3-(difluoromethyl)imidazo [1,2-a]pyridin-2-yl]-1-(cyclopropylmethyl)pyrrolo [2,3-b]pyridin-6-yl]-~{N}-(difluoromethyl) methanesulfonamide], for which the half-inhibitory concentration (IC50) turned out to be 1170 nM.
Take `COc1cc(C(=O)N2[C@@H]3CC[C@@H](N)[C@H]2CC3)cc2nc(-c3cc4ccc(N(C(F)F)S(C)(=O)=O)nc4n3CC3CC3)c(C)n12` [Example 410, ~{N}-[2-[7-[(1~{R},2~{R}, 5~{R})-2-amino-8-azabicyclo[3.2.1]octane-8-carbonyl]-5-methoxy-3-methylimidazo[1,2-a]pyridin-2-yl]-1-(cyclopropylmethyl)pyrrolo [2,3-b]pyridin-6-yl]-~{N}-(difluoromethyl) methanesulfonamide]: the IC50 was found to be 233 nM.
Take `COc1cc(C(=O)N2CCC[C@@H](N)[C@H]2C)cc2nc(-c3cc4ccc(N(C(F)F)S(C)(=O)=O)nc4n3CC3CC3)c(C)n12` [Example 411, ~{N}-[2-[7-[(2~{R},3~{R})-3-amino-2-methylpiperidine-1-carbonyl]-5-methoxy-3-methylimidazo[1,2-a]pyridin-2-yl]-1-(cyclopropylmethyl)pyrrolo [2,3-b]pyridin-6-yl]-~{N}-(difluoromethyl) methanesulfonamide]: the half-inhibitory concentration (IC50) amounted to 143 nM.
In the case of `COc1cc(C(=O)N2C[C@H](N)CC[C@@H]2C)cc2nc(-c3cc4ccc(N(C(F)F)S(C)(=O)=O)nc4n3CC3CC3)c(C)n12` [Example 412, ~{N}-[2-[7-[(2~{S},5~{R})-5-amino-2-methylpiperidine-1-carbonyl]-5-methoxy-3-methylimidazo [1,2-a]pyridin-2-yl]-1-(cyclopropylmethyl)pyrrolo-[2,3b]pyridin-6-yl]-~{N}-(difluoromethyl) methanesulfonamide], the IC50 amounted to 156 nM.
As to `COc1cc(C(=O)N2CCC[C@@H](N)C2)cc2nc(-c3cc4ccc(N(C(F)F)S(=O)(=O)C5CC5)nc4n3CC3CC3)c(C)n12` [Example 413, ~{N}-[2-[7-[(3~{R})-3-aminopiperidine-1-carbonyl]-5-methoxy-3-methylimidazo [1,2-a]pyridin-2-yl]-1-(cyclopropylmethyl)pyrrolo [2,3-b]pyridin-6-yl]-~{N}-(difluoromethyl) cyclopropanesulfonamide], the IC50 worked out at 253 nM.
In the case of `COc1cc(C(=O)N2[C@@H]3CC[C@H]2[C@@H](N)[C@@H](O)C3)cc2nc(-c3cc4ccc(N(C(F)F)S(C)(=O)=O)nc4n3CC3CC3)c(C)n12` [Example 414, ~{N}-[2-[7-[(1~{S}, 2~{R},3~{S},5~{R})-2-amino-3-hydroxy-8-azabicyclo[3.2.1]octane-8-carbonyl]-5-methoxy-3-methylimidazo [1,2-a]pyridin-2-yl]-1-(cyclopropylmethyl)pyrrolo [2,3-b]pyridin-6-yl]-~{N}-(difluoromethyl) methanesulfonamide], the 50% inhibitory concentration (IC50) is 5250 nM.
For `COc1cc(C(=O)N2CC[C@H]3CCNC[C@H]32)cc2nc(-c3cc4ccc(N(C(F)F)S(C)(=O)=O)nc4n3CC3CC3)c(C)n12` [Example 415, ~{N}-[2-[7-[(3~{a}~{R},7~{a}~{S})-2,3,3~{a},4,5,6,7,7~{a}-octahydropyrrolo[2,3-c]pyridine-1-carbonyl]-5-methoxy-3-methylimidazo[1,2-a]pyridin-2-yl]-1-(cyclopropylmethyl)pyrrolo [2,3-b]pyridin-6-yl]-~{N}-(difluoromethyl) methanesulfonamide] the value was 27900 nM; for `COc1cc(C(=O)N2[C@H]3CC[C@@H]2[C@H](N)[C@H](O)C3)cc2nc(-c3cc4ccc(N(C(F)F)S(C)(=O)=O)nc4n3CC3CC3)c(C)n12` [Example 416, ~{N}-[2-[7-[(1~{R},2~{S},3~{R}, 5~{S})-2-amino-3-hydroxy-8-azabicyclo[3.2.1]octane-8-carbonyl]-5-methoxy-3-methylimidazo[1,2-a]pyridin-2-yl]-1-(cyclopropylmethyl)pyrrolo [2,3-b]pyridin-6-yl]-~{N}-(difluoromethyl) methanesulfonamide], 337 nM.
Take `COc1cc(C(=O)N2CC[C@@H]3CCNC[C@H]32)cc2nc(-c3cc4ccc(N(C(F)F)S(C)(=O)=O)nc4n3CC3CC3)c(C)n12` [Example 418, ~{N}-[2-[7-[(3~{a}~{S}, 7~{a}~{S})-2,3,3~{a},4,5,6,7,7~{a}-octahydropyrrolo[2,3-c]pyridine-1-carbonyl]-5-methoxy-3-methylimidazo[1,2-a]pyridin-2-yl]-1-(cyclopropylmethyl)pyrrolo [2,3-b]pyridin-6-yl]-~{N}-(difluoromethyl) methanesulfonamide]: the half-maximal inhibitory concentration (IC50) was 151 nM.
As to `COc1cc(C(=O)N2CC[C@@H]3CCN[C@@H]3C2)cc2nc(-c3cc4ccc(N(C(F)F)S(C)(=O)=O)nc4n3CC3CC3)c(C)n12` [Example 419], the IC50 was 1170 nM.
In the case of `COc1cc(C(=O)N2CC[C@H]3CCN[C@H]3C2)cc2nc(-c3cc4ccc(N(C(F)F)S(C)(=O)=O)nc4n3CC3CC3)c(C)n12` [Example 420, ~{N}-[2-[7-[(3~{a}~{R},7~{a}~{R})-1,2,3,3~{a},4,5,7,7~{a}-octahydropyrrolo[2,3-c]pyridine-6-carbonyl]-5-methoxy-3-methylimidazo [1,2-a]pyridin-2-yl]-1-(cyclopropylmethyl)pyrrolo [2,3-b]pyridin-6-yl]-~{N}-(difluoromethyl) methanesulfonamide], the IC50 was found to be 60.6 nM.
For the compound `CNc1cc(C(=O)N2CCC[C@@H](N)C2)cc2nc(-c3cc4ccc(N(C(F)F)S(C)(=O)=O)nc4n3CC3CC3)c(C)n12` [Example 421, ~{N}-[2-[7-[(3~{R})-3-aminopiperidine-1-carbonyl]-3-methyl-5-(methylamino)imidazo[1,2-a]pyridin-2-yl]-1-(cyclopropylmethyl)pyrrolo [2,3-b]pyridin-6-yl]-~{N}-(difluoromethyl) methanesulfonamide], the half-inhibitory concentration (IC50) is 341 nM.
Take `Cc1c(-c2cc3ccc(N(C(F)F)S(C)(=O)=O)nc3n2CC2CC2)nc2cc(C(=O)N3CCC[C@@H](N)C3)cc(N(C)C)n12` [Example 422, ~{N}-[2-[7-[(3~{R})-3-aminopiperidine-1-carbonyl]-5-(dimethylamino)-3-methylimidazo[1,2-a]pyridin-2-yl]-1-(cyclopropylmethyl)pyrrolo [2,3-b]pyridin-6-yl]-~{N}-(difluoromethyl) methanesulfonamide]: the IC50 worked out at 6370 nM.
As to `Cc1c(-c2cc3ccc(N(C(F)F)S(C)(=O)=O)nc3n2CC2CC2)nc2cc(C(=O)N3CCC[C@@H](N)C3)cc(C(F)F)n12` [Example 423, ~{N}-[2-[7-[(3~{R})-3-aminopiperidine-1-carbonyl]-5-(difluoromethyl)-3-methylimidazo[1,2-a]pyridin-2-yl]-1-(cyclopropylmethyl)pyrrolo [2,3-b]pyridin-6-yl]-~{N}-(difluoromethyl) methanesulfonamide], the IC50 amounted to 1770 nM.
`Cc1c(-c2cc3ccc(N(C(F)F)S(C)(=O)=O)nc3n2CC2CC2)nc2cc(C(=O)N3CCC[C@@H](N)C3)cc([S+](C)[O-])n12` (some centres unmarked) [Example 424, ~{N}-[2-[7-[(3~{R})-3-aminopiperidine-1-carbonyl]-3-methyl-5-methylsulfinylimidazo[1,2-a]pyridin-2-yl]-1-(cyclopropylmethyl)pyrrolo [2,3-b]pyridin-6-yl]-~{N}-(difluoromethyl) methanesulfonamide]: the half-maximal inhibitory concentration (IC50) stood at 18000 nM.
For `Cc1cc(C(=O)N2CCC[C@@H](N)C2)cc2nc(-c3cc4ccc(N(C(F)F)S(C)(=O)=O)nc4n3CC3CC3)c(C)n12` [Example 426, ~{N}-[2-[7-[(3~{R})-3-aminopiperidine-1-carbonyl]-3,5-dimethylimidazo [1,2-a]pyridin-2-yl]-1-(cyclopropylmethyl)pyrrolo [2,3-b]pyridin-6-yl]-~{N}-(difluoromethyl) methanesulfonamide] the value was 125 nM; for `CCc1cc(C(=O)N2CCC[C@@H](N)C2)cc2nc(-c3cc4ccc(N(C(F)F)S(C)(=O)=O)nc4n3CC3CC3)c(C)n12` [Example 427, ~{N}-[2-[7-[(3~{R})-3-aminopiperidine-1-carbonyl]-5-ethyl-3-methylimidazo [1,2-a]pyridin-2-yl]-1-(cyclopropylmethyl)pyrrolo [2,3-b]pyridin-6-yl]-~{N}-(difluoromethyl) methanesulfonamide], 94.7 nM.
